For 19 molecules, Leishmanicidal activity results are on record in ChEMBL document CHEMBL1132138, “Leishmanicidal activity of combretastatin analogues and heteroanalogues” (Bioorg Med Chem Lett, 1999).

The structures appear in SMILES notation. Active and inactive are the calls of the source. The calls are words filed in the database; no cut-off is given here.

What all share (assay type): functional, organism-based
The subject of assay [1] is Leishmania amazonensis. Description: In vitro evaluation of leishmanicidal activity against Leishmania amazonensis (PH8) at a dose 100 ug/mL; +++=total lysis of parasites.
Assay [2] deals with Leishmania amazonensis. Nature of the assay: In vitro evaluation of leishmanicidal activity against Leishmania amazonensis (PH8) at a dose 25 ug/mL; Total lysis of parasites.
For assay [3], the system named is Leishmania amazonensis. Nature of the assay: In vitro evaluation of leishmanicidal activity against Leishmania amazonensis (PH8) at a dose 50 ug/mL; Total lysis of parasites.
Assay [4] has as its system Leishmania donovani. Description: In vitro evaluation of leishmanicidal activity against Leishmania donovani (PP75) at a dose 10 ug/mL; +++=total lysis of parasites.
The subject of assay [5] is Leishmania donovani. Description: In vitro evaluation of leishmanicidal activity against Leishmania donovani (PP75) at a dose 25 ug/mL; +++=total lysis of parasites.
For assay [6], the system named is Leishmania donovani. Description: In vitro evaluation of leishmanicidal activity against Leishmania donovani (PP75) at a dose 100 ug/mL; +++=total lysis of parasites.
Assay [7] deals with Leishmania braziliensis. Description: In vitro evaluation of leishmanicidal activity against Leishmania brasiliensis (2903) at a dose 25 ug/mLv.
In assay [8] the test system is Leishmania braziliensis. Nature of the assay: In vitro evaluation of leishmanicidal activity against Leishmania brasiliensis (2903) at a dose 50 ug/mL; +++=total lysis of parasites.
Assay [9] concerns Leishmania braziliensis. Nature of the assay: In vitro evaluation of leishmanicidal activity against Leishmania brasiliensis (2903) at a dose 10 ug/mL; +++=total lysis of parasites.
In assay [10] the test system is Leishmania braziliensis. Nature of the assay: In vitro evaluation of leishmanicidal activity against Leishmania brasiliensis (2903) at a dose 100 ug/mL; +++=total lysis of parasites.
For assay [11], the system named is Leishmania amazonensis. Description: In vitro evaluation of leishmanicidal activity against Leishmania amazonensis (PH8) at a dose 10 ug/mL; +++=total lysis of parasites.
In assay [12] the test system is Leishmania donovani. Description: In vitro evaluation of leishmanicidal activity against Leishmania donovani (PP75) at a dose 50 ug/mL; +++=total lysis of parasites.
Assay [13] concerns Leishmania donovani. Description: In vitro evaluation of leishmanicidal activity against Leishmania donovani (PP75) at a dose 100 ug/mL; ++ = 80- 90% lysis.
Assay [14] concerns Leishmania amazonensis. Nature of the assay: In vitro evaluation of leishmanicidal activity against Leishmania amazonensis (PH8) at a dose 100 ug/mL; ++ = 80- 90% lysis.
Assay [15] relates to Leishmania braziliensis. Nature of the assay: In vitro evaluation of leishmanicidal activity against Leishmania brasiliensis (2903) at a dose 100 ug/mL; ++ = 80- 90% lysis.
In assay [16] the test system is Leishmania donovani. Description: In vitro evaluation of leishmanicidal activity against Leishmania donovani (PP75) at a dose 100 ug/mL; + = <70% lysis.
The test system of assay [17] is Leishmania braziliensis. Nature of the assay: In vitro evaluation of leishmanicidal activity against Leishmania brasiliensis (2903) at a dose 100 ug/mL; + = <70% lysis.
The subject of assay [18] is Leishmania donovani. Description: In vitro evaluation of leishmanicidal activity against Leishmania donovani (PP75) at a dose 10 ug/mL; ++ = 80- 90% lysis.
Assay [19] deals with Leishmania braziliensis. Nature of the assay: In vitro evaluation of leishmanicidal activity against Leishmania brasiliensis (2903) at a dose 10 ug/mL; ++ = 80- 90% lysis.
The subject of assay [20] is Leishmania amazonensis. Description: In vitro evaluation of leishmanicidal activity against Leishmania amazonensis (PH8) at a dose 10 ug/mL; ++ = 80- 90% lysis.
Assay [21] concerns Leishmania braziliensis. Description: Compound was tested in vitro for leishmanicidal activity against Leishmania brasiliensis (2903) at a dose 100 ug/mL; ++ = 80-90% of lysis.
Assay [22] has as its system Leishmania donovani. Description: Compound was tested in vitro for leishmanicidal activity against Leishmania donovani (PP75) at a dose 100 ug/mL; ++ = 80-90% of lysis.
The test system of assay [23] is Leishmania amazonensis. Nature of the assay: In vitro evaluation of leishmanicidal activity against Leishmania amazonensis (PH8) at a dose 100 ug/mL; ++ = 80-90% of lysis.
Assay [24] deals with Leishmania braziliensis. Nature of the assay: In vitro evaluation of leishmanicidal activity against Leishmania brasiliensis (2903) at a dose 25 ug/mL; ++ = 80- 90% lysis.
Assay [25] deals with Leishmania amazonensis. Description: In vitro evaluation of leishmanicidal activity against Leishmania amazonensis (PH8) at a dose 25 ug/mL; ++ = 80- 90% lysis.
The subject of assay [26] is Leishmania donovani. Description: In vitro evaluation of leishmanicidal activity against Leishmania donovani (PP75) at a dose 25 ug/mL; ++ = 80- 90% lysis.
The test system of assay [27] is Leishmania donovani. Description: In vitro evaluation of leishmanicidal activity against Leishmania donovani (PP75) at a dose 50 ug/mL; ++ = 80- 90% lysis.
For assay [28], the system named is Leishmania braziliensis. Description: In vitro evaluation of leishmanicidal activity against Leishmania brasiliensis (2903) at a dose 50 ug/mL; ++ = 80- 90% lysis.
For assay [29], the system named is Leishmania amazonensis. Description: In vitro evaluation of leishmanicidal activity against Leishmania amazonensis (PH8) at a dose 50 ug/mL; ++ = 80- 90% lysis.
Assay [30] deals with Leishmania amazonensis. Description: In vitro evaluation of leishmanicidal activity against Leishmania amazonensis (PH8) at a dose 100 ug/mL; + = <70% lysis.
Assay [31] relates to Leishmania amazonensis. Nature of the assay: In vitro evaluation of leishmanicidal activity against Leishmania amazonensis (PH8) at a dose 50 ug/mL;++ = 80- 90% lysis.

On to `N=C(N)c1ccc(OCCCCCOc2ccc(C(=N)N)cc2)cc1`, for which the Leishmanicidal activity entry with Leishmania amazonensis [1], in the assay on Leishmania amazonensis [2], in the assay with Leishmania amazonensis [3], in the assay on Leishmania donovani [4], with Leishmania donovani [5] and in the assay on Leishmania donovani [6] was “Active” each time. The Leishmanicidal activity entry with Leishmania braziliensis [7], in the assay on Leishmania braziliensis [8], in the assay on Leishmania braziliensis [9], in the assay on Leishmania braziliensis [10], in the assay with Leishmania amazonensis [11] and in the assay with Leishmania donovani [12] was “Active” throughout.

As to `COc1ccc(CCc2ccco2)cc1O`, the Leishmanicidal activity with Leishmania donovani [13], in the assay on Leishmania amazonensis [14] and in the assay on Leishmania braziliensis [15] was 80- 90% lysis throughout.

Regarding `COc1cc(CC(=O)c2ccoc2)cc(OC)c1OC`, the Leishmanicidal activity in the assay with Leishmania donovani [13], in the assay with Leishmania amazonensis [14] and in the assay with Leishmania braziliensis [15] was 80- 90% lysis in each case.

For `COc1cc(CCc2ccoc2)cc(OC)c1OC`, the Leishmanicidal activity in the assay with Leishmania donovani [16] and in the assay on Leishmania braziliensis [17] was less than 70% lysis throughout.

For the molecule `COc1ccc2[nH]c(-c3ccco3)c(-c3cc(OC)c(OC)c(OC)c3)c2c1`, the Leishmanicidal activity in the assay with Leishmania donovani [18], in the assay with Leishmania braziliensis [19] and in the assay with Leishmania amazonensis [20] was 80- 90% lysis each time.

As for `COc1ccc(CC(=O)c2ccco2)cc1O`, the Leishmanicidal activity in the assay with Leishmania donovani [13], with Leishmania amazonensis [14] and with Leishmania braziliensis [15] was 80- 90% lysis throughout.

In the case of `COc1cc(CC2(c3cn(C)c4ccccc34)SCCCS2)cc(OC)c1OC`, the Leishmanicidal activity in the assay with Leishmania braziliensis [21], with Leishmania donovani [22] and in the assay on Leishmania amazonensis [23] was 80-90% of lysis in each case.

With `COc1cc(CCc2ccco2)cc(OC)c1OC`, the Leishmanicidal activity in the assay on Leishmania braziliensis [24], in the assay with Leishmania donovani [18], in the assay on Leishmania donovani [13], in the assay on Leishmania braziliensis [19], in the assay on Leishmania amazonensis [25] and in the assay on Leishmania amazonensis [20] was 80- 90% lysis in each case. Further, in the assay on Leishmania donovani [26], the Leishmanicidal activity was 80- 90% lysis.

As to `COc1cc(CC(O)c2ccc3c(c2)OCO3)cc(OC)c1OC` (stereo not given), the Leishmanicidal activity in the assay on Leishmania braziliensis [24], in the assay with Leishmania donovani [18], with Leishmania donovani [27], in the assay on Leishmania braziliensis [19], with Leishmania amazonensis [25] and with Leishmania braziliensis [28] was 80- 90% lysis throughout. The Leishmanicidal activity in the assay with Leishmania amazonensis [20], in the assay on Leishmania amazonensis [29] and in the assay with Leishmania donovani [26] was 80- 90% lysis in each case.

`COc1cc(CC(=O)c2ccc3c(c2)OCO3)cc(OC)c1OC`: the Leishmanicidal activity in the assay with Leishmania braziliensis [24], in the assay with Leishmania donovani [18], in the assay with Leishmania braziliensis [19], in the assay with Leishmania amazonensis [25], in the assay with Leishmania braziliensis [28] and in the assay with Leishmania amazonensis [20] was 80- 90% lysis throughout. For the same molecule, the Leishmanicidal activity with Leishmania donovani [26] was 80- 90% lysis.

With `COc1cc(CC(=O)c2ccc(C)o2)cc(OC)c1OC`, the Leishmanicidal activity in the assay on Leishmania donovani [18], in the assay on Leishmania donovani [13], in the assay on Leishmania braziliensis [19] and in the assay with Leishmania amazonensis [20] was 80- 90% lysis each time.

In the case of `COc1cc(C(O)C(=O)c2cccs2)cc(OC)c1OC` (stereo not given), the Leishmanicidal activity with Leishmania amazonensis [30], in the assay on Leishmania donovani [16] and in the assay with Leishmania braziliensis [17] was less than 70% lysis each time.

Turning to `COc1cc(CCc2cn(C)c3ccccc23)cc(OC)c1OC`, the Leishmanicidal activity with Leishmania braziliensis [24], with Leishmania donovani [18], in the assay with Leishmania braziliensis [19], in the assay with Leishmania amazonensis [25], in the assay on Leishmania amazonensis [20] and with Leishmania donovani [26] was 80- 90% lysis in each case.

In the case of `COc1ccc2[nH]c(-c3ccc4ccccc4c3)c(-c3cc(OC)c(OC)c(OC)c3)c2c1`, the Leishmanicidal activity in the assay on Leishmania donovani [13], in the assay on Leishmania amazonensis [14] and with Leishmania braziliensis [15] was 80- 90% lysis in each case.

Take `COc1cc(CCc2ccc3ccccc3c2)cc(OC)c1OC`: the Leishmanicidal activity in the assay on Leishmania donovani [27], in the assay with Leishmania braziliensis [28] and in the assay on Leishmania amazonensis [29] was 80- 90% lysis each time.

Turning to `COc1ccc2[nH]c(-c3ccc4c(c3)OCO4)c(-c3cc(OC)c(OC)c(OC)c3)c2c1`, the Leishmanicidal activity in the assay on Leishmania donovani [27], with Leishmania braziliensis [28] and in the assay with Leishmania amazonensis [31] was 80- 90% lysis each time.

In the case of `COc1cc(CC(O)c2ccco2)cc(OC)c1OC` (stereo not given), the Leishmanicidal activity in the assay on Leishmania donovani [13], in the assay on Leishmania amazonensis [14] and in the assay on Leishmania braziliensis [15] was 80- 90% lysis in each case.

Turning to `COc1cc(CC(=O)c2ccco2)cc(OC)c1OC`, the Leishmanicidal activity in the assay on Leishmania donovani [18], in the assay on Leishmania braziliensis [19] and in the assay on Leishmania amazonensis [20] was 80- 90% lysis in each case.

With `COc1ccc(CCc2ccc3c(c2)OCO3)cc1O`, the Leishmanicidal activity with Leishmania donovani [27], in the assay with Leishmania amazonensis [14], with Leishmania braziliensis [28], in the assay on Leishmania amazonensis [29] and in the assay on Leishmania braziliensis [15] was 80- 90% lysis in each case.
